Data as given in patent publication US12435046B2, “Alkynyl quinazoline compounds” (Black Diamond Therapeutics, Inc., priority 2019, dated 2025).

Key:
Type in all cases: cell-based
Settings in all cases: Table A; BaF3 cells, 3 days
HER2 S310F = biological target: T1, HER2 S310F (Homo sapiens, UniProt P04626, S310F); experiment: BaF3 cell proliferation assay (CellTiterGlo), HER2 S310F
T1 construct: expressed in transfected cells; host or cells: BaF3 (murine pro-B) cells

EGFR V3 = biological target: T2, EGFR V3 (Homo sapiens, UniProt P00533, DELINS30-297G); experiment: BaF3 cell proliferation assay (CellTiterGlo), EGFR V3
T2 construct: expressed in transfected cells; host or cells: BaF3 (murine pro-B) cells, retroviral transduction with pMXs-IRES-Blasticidin
Description: (§1) Retroviral Production: EGFR mutants were subcloned into pMXs-IRES-Blasticidin (RTV-016, Cell Biolabs, San Diego, CA). Retroviral expression vector retrovirus was produced by transient transfection of HEK 293T cells with the retroviral EGFR mutant expression vector pMXs-IRES-Blasticidin (RTV-016, Cell Biolabs), pCMV-Gag-Pol vector and pCMV-VSV-G-Envelope vector. Briefly, HEK 293T/17 cells were plated in 100 mm collagen coated plate (354450, Corning Life Sciences, Tewksbury, MA) (4×10^5 per plate) and incubated overnight. The next day, retroviral plasmids (3 ng of EGFR mutant, 1.0 ng of pCMV-Gag-Pol and 0.5 ng pCMV-VSV-G) were mixed in 500 n1 of Optimem (31985, Life Technologies). The mixture was incubated at room temperature for 5 min and then added to Optimem containing transfection reagent Lipofectamine (11668, Invitrogen) and incubated for 20 minutes. Mixture was then added dropwise to HEK 293T cells. The next day the medium was replaced with fresh culture medium and retrovirus was harvested @ 24 and 48 hrs.
(§2) Generation of EGFR mutant stable cell lines: BaF3 cells (1.5E5 cells) were infected with 1 ml of viral supernatant supplemented with 8 ng/ml polybrene by centrifuging for 30 min at 1000 rpm. Cells were placed in a 37° C. incubator overnight. Cells were then spun for 5 minutes to pellet the cells. Supernatant was removed and cells re-infected a fresh 1 ml of viral supernatant supplemented with 8 ng/ml polybrene by centrifuging for 30 min at 1000 rpm. Cells were placed in 37° C. incubator overnight. Cells were then maintained in RPMI containing 10% Heat Inactivated FBS, 2% L-glutamine containing 10 ng/ml IL-3. After 48 hours cells were selected for retroviral infection in 10 […] for one week. Blasticidin resistant populations were washed twice in phosphate buffered saline before plating in media lacking IL-3 to select for IL-3 independent growth.
(§3) Assay for cell proliferation: BaF3 cell lines were resuspended at 1.3E5 c/ml in RPMI containing 10% Heat Inactivated FBS, 2% L-glutamine and 1% Pen/Strep and dispensed in triplicate (17.5E4 c/well) into 96 well plates. To determine the effect of drug on cell proliferation, cells incubated for 3 days in the presence of vehicle control or test drug at varying concentrations. Inhibition of cell growth was determined by luminescent quantification of intracellular ATP content using CellTiterGlo (Promega), according to the protocol provided by the manufacturer. Comparison of cell number on day 0 versus 72 hours post drug treatment was used to plot dose-response curves. The number of viable cells was determined and normalized to vehicle-treated controls. Inhibition of proliferation, relative to vehicle-treated controls was expressed as a fraction of 1 and graphed using PRISM® software (Graphpad Software, San Diego, CA). EC50 values were determined with the same application.

EGFR wt = biological target: T3, EGFR wt (Homo sapiens, UniProt P00533); experiment: BaF3 cell proliferation assay (CellTiterGlo), EGFR wt
T3 construct: expressed in transfected cells; host or cells: BaF3 (murine pro-B) cells, retroviral transduction with pMXs-IRES-Blasticidin
Description: as §1, §2, §3

HER2 YVMA = biological target: T4, HER2 YVMA (Homo sapiens, UniProt P04626, INS775YVMA); experiment: BaF3 cell proliferation assay (CellTiterGlo), HER2 YVMA
T4 construct: expressed in transfected cells; host or cells: BaF3 (murine pro-B) cells
T4 sequence (P04626 with tags, fused parts or gaps INS775YVMA): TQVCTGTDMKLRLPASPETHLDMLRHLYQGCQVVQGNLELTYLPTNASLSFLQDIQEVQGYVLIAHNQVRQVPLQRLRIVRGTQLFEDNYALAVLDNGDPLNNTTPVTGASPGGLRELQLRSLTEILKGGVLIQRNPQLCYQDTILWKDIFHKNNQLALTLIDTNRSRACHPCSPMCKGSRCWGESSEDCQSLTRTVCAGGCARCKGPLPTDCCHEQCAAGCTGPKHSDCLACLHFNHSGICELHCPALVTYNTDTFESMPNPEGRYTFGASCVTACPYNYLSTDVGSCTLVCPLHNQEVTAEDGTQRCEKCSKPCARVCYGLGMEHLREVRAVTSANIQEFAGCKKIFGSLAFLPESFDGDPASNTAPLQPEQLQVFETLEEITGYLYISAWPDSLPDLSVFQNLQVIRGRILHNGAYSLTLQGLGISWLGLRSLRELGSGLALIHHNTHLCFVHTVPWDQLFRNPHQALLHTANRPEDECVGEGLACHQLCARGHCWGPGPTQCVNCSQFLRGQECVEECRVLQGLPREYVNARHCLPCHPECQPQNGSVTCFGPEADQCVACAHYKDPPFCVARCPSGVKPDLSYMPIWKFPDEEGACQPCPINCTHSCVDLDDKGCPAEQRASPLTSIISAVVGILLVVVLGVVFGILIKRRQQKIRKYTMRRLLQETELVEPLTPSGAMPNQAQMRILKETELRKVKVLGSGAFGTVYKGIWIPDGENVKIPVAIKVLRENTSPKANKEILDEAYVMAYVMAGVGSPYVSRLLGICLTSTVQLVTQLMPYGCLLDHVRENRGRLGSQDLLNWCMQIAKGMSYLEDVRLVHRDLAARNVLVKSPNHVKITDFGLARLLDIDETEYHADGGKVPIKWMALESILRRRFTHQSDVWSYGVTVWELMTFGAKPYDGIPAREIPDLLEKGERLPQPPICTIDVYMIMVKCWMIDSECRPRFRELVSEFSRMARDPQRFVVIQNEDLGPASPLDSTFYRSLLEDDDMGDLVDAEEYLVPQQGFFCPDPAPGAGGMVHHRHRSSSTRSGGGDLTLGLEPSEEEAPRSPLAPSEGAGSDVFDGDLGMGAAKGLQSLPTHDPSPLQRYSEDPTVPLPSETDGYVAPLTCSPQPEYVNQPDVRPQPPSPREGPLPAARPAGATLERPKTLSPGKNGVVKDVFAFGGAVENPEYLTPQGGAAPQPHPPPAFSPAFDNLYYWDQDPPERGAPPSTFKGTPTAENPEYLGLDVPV

T1 sequence (P04626 23-1255 S310F): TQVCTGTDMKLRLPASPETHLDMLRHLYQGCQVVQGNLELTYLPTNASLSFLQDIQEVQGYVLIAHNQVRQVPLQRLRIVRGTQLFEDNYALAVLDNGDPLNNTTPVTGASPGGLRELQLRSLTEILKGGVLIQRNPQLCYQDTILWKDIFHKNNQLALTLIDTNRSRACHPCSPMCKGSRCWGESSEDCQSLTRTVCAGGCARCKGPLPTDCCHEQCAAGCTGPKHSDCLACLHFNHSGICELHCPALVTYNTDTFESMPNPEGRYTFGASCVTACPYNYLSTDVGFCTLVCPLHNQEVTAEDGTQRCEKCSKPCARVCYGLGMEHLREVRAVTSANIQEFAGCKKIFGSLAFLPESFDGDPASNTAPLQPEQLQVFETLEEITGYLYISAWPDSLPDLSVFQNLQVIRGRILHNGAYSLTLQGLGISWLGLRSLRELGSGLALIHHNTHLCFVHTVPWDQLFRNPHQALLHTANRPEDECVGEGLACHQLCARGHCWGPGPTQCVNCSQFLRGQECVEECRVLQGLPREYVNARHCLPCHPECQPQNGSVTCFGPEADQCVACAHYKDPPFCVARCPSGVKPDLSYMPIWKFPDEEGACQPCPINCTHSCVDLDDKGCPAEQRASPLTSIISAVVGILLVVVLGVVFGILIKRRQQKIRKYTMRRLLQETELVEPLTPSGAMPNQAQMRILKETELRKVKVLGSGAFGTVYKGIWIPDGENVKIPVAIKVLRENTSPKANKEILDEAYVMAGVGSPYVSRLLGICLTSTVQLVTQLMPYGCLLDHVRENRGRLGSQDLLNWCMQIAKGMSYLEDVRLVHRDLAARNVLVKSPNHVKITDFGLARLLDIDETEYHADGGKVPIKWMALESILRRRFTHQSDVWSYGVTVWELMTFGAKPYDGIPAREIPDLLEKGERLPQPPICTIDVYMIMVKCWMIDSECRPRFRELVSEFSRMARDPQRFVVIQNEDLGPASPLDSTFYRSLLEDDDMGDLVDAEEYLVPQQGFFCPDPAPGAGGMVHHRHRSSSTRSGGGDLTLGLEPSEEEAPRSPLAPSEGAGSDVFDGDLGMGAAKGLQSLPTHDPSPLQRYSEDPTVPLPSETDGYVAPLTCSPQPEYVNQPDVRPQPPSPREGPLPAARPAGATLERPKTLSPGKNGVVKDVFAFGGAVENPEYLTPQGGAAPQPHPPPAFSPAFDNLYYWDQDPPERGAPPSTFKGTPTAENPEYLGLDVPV
T2 sequence (P00533 with tags, fused parts or gaps DELINS30-297G): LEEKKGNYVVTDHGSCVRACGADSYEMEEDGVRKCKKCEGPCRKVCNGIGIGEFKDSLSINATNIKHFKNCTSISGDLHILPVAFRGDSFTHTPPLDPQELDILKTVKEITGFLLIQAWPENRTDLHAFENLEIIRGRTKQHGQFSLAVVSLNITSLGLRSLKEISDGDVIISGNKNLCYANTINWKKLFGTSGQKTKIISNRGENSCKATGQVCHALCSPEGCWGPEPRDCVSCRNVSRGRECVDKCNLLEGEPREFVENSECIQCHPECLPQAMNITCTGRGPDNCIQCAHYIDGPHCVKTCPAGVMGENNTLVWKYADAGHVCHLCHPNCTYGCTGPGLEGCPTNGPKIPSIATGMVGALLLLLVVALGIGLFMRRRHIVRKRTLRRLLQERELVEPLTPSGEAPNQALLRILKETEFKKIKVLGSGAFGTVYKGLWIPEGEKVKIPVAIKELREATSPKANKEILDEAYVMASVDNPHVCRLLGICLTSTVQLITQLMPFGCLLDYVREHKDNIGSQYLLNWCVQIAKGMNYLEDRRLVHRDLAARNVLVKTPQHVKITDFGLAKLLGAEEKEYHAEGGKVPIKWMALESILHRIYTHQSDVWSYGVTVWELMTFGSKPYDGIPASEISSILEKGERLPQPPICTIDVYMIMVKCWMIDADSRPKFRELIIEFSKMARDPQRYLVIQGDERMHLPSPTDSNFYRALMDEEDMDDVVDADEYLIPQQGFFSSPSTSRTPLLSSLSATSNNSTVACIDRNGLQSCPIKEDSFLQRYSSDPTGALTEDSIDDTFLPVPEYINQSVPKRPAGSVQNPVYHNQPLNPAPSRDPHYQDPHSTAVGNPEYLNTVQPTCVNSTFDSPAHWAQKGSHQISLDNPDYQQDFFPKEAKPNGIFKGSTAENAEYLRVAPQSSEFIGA
T3 sequence (P00533 25-1210): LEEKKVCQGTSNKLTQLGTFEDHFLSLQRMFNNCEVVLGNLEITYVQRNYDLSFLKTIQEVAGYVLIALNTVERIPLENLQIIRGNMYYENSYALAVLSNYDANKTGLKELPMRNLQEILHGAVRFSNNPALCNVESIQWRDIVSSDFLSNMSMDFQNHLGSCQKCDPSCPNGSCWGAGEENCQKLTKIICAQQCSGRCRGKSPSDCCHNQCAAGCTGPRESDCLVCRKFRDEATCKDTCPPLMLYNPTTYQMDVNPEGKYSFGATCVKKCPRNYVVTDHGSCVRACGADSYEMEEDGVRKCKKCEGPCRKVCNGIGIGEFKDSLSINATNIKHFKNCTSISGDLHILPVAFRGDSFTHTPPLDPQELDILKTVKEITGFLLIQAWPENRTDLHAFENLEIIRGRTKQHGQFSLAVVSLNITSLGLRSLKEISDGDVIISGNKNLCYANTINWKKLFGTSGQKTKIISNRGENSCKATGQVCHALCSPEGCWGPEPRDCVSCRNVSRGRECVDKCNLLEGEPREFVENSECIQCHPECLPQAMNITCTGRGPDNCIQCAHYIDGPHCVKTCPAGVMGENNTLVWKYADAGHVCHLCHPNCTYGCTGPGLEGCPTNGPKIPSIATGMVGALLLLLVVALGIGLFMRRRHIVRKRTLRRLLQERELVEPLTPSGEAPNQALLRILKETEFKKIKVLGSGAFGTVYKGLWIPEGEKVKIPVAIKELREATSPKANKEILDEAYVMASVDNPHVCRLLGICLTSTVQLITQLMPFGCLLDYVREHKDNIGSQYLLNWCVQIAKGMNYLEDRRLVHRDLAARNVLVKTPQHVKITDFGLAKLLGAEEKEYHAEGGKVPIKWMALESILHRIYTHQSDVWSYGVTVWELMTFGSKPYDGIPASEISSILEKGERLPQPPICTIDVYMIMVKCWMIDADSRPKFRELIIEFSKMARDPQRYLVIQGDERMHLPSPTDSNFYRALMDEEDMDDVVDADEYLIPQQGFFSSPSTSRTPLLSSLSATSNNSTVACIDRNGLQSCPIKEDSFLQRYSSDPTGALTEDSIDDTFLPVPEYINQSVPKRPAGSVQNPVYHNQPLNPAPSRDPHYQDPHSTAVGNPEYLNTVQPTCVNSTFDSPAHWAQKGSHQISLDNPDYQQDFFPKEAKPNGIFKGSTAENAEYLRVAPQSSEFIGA

SMILES | IC50 (HER2 S310F) [nM] | IC50 (EGFR V3) [nM] | IC50 (EGFR wt) [nM] | IC50 (HER2 YVMA) [nM]
CCC(=O)Nc1cc2c(Nc3cccc(Cl)c3F)ncnc2cc1C#C[C@@]1(C)CCN(C)C1 [Compound 22, (R)—N-(4-((3-chloro-2-fluorophenyl)amino)-7-((1,3-dimethylpyrrolidin-3-yl)ethynyl)quinazolin-6-yl)propionamide] | > 500 | > 500 | – | –
CN1C[C@H]2C[C@@]2(C#Cc2cc3ncnc(Nc4cccc(Cl)c4F)c3cc2NC(=O)C(F)Cl)C1 (stereo partly drawn) [Compound 23, 2-chloro-N-(4-((3-chloro-2-fluorophenyl)-amino)-7-(((1R,5S)-3-methyl-3-azabicyclo[3.1.0]hexan-1-yl)ethynyl)quinazolin-6-yl)-2-fluoroacetamide] | 100 to 500 | > 500 | 50 to 100 | –
C/C=C/C(=O)Nc1cc2c(Nc3cccc(Cl)c3F)ncnc2cc1C#C[C@@]1(C)CCN(C)C1 [Compound 27, (R,E)-N-(4-((3-chloro-2-fluorophenyl)amino)-7-((1,3-dimethylpyrrolidin-3-yl)ethynyl)quinazolin-6-yl)but-2-enamide] | – | > 500 | 100 to 500 | > 500
C=CC(=O)Nc1cc2c(Nc3cc(Cl)ccc3F)ncnc2cc1C#CC1(C)COC1 [Compound 29, N-(4-((5-chloro-2-fluorophenyl)amino)-7-((3-methyloxetan-3-yl)ethynyl)quinazolin-6-yl)acrylamide] | – | 100 to 500 | 100 to 500 | > 500
C=C(CO)C(=O)Nc1cc2c(Nc3cccc(Cl)c3F)ncnc2cc1C#C[C@@]1(C)CCN(C)C1 [Compound 31, (R)—N-(4-((3-chloro-2-fluorophenyl)amino)-7-((1,3-dimethylpyrrolidin-3-yl)ethynyl)quinazolin-6-yl)-2-(hydroxymethyl)acrylamide] | – | 50 to 100 | ≤ 50 | 100 to 500
CC(C)/C=C/C(=O)Nc1cc2c(Nc3cccc(Cl)c3F)ncnc2cc1C#C[C@@]1(C)CCN(C)C1 [Compound 39, (E)-N-[4-(3-chloro-2-fluoro-anilino)-7-[2-[(3R)-1,3-dimethylpyrrolidin-3-yl]ethynyl]quinazolin-6-yl]-4-methyl-pent-2-enamide] | – | > 500 | 50 to 100 | > 500
COC(=O)Nc1cc2c(Nc3cccc(Cl)c3F)ncnc2cc1C#CC1(C)CCN(C)C1 (stereo not shown) [Compound 43, Methyl (4-((3-chloro-2-fluorophenyl)amino)-7-((1,3-dimethylpyrrolidin-3-yl)ethynyl)quinazolin-6-yl)carbamate] | – | > 500 | ≤ 50 | > 500
CN(C)C/C=C/C(=O)Nc1cc2c(Nc3cccc(Cl)c3F)ncnc2cc1C#CC1(C)CCOC1 (stereo not shown) [Compound 44, (E)-N-(4-((3-chloro-2-fluorophenyl)amino)-7-((3-methyltetrahydrofuran-3-yl)ethynyl)quinazolin-6-yl)-4-(dimethylamino)but-2-enamide] | – | ≤ 50 | ≤ 50 | ≤ 50
CN1CC[C@](C)(C#Cc2cc3ncnc(Nc4cccc(Cl)c4F)c3cc2NC(=O)CC#N)C1 [Compound No. 84, (R)—N-(4-((3-chloro-2-fluorophenyl)amino)-7-((1,3-dimethylpyrrolidin-3-yl)ethynyl)quinazolin-6-yl)-2-cyanoacetamide] | – | > 500 | > 500 | > 500

The remaining lines, values ahead:

IC50 (HER2 S310F) [nM] | IC50 (EGFR V3) [nM] | IC50 (EGFR wt) [nM] | IC50 (HER2 YVMA) [nM] | SMILES
≤ 50 | ≤ 50 | – | – | CN1C[C@H]2C[C@@]2(C#Cc2cc3ncnc(Nc4cccc(Cl)c4F)c3cc2NC(=O)C#CCN2CCOCC2)C1 [Compound 18, N-(4-((3-chloro-2-fluorophenyl)amino)-7-(((1R,5S)-3-methyl-3-azabicyclo[3.1.0]hexan-1-yl)ethynyl)quinazolin-6-yl)-4-morpholinobut-2-ynamide]
≤ 50 | ≤ 50 | 100 to 500 | – | CN1C[C@H]2C[C@@]2(C#Cc2cc3ncnc(Nc4cccc(Cl)c4F)c3cc2NC(=O)/C=C/CN2C3COCC2C3)C1 [Compound 20, (E)-4-(3-oxa-6-azabicyclo[3.1.1]heptan-6-yl)-N-(4-((3-chloro-2-fluorophenyl)amino)-7-(((1R,5S)-3-methyl-3-azabicyclo[3.1.0]hexan-1-yl)ethynyl)quinazolin-6-yl)but-2-enamide]
– | ≤ 50 | > 500 | ≤ 50 | C=CC(=O)Nc1cc2c(Nc3ccc(Oc4ccn5ncnc5c4)c(C)c3)ncnc2cc1C#CC12CC1CN(C)C2 (stereo not shown) [Compound 28, N-(4-((4-([1,2,4]triazolo[1,5-a]pyridin-7-yloxy)-3-methylphenyl)amino)-7-((3-methyl-3-azabicyclo[3.1.0]hexan-1-yl)ethynyl)quinazolin-6-yl)acrylamide]
– | ≤ 50 | 50 to 100 | 50 to 100 | C=CC(=O)Nc1cc2c(Nc3cccc(Cl)c3F)ncnc2cc1C#CC1(C)COC1 [Compound 30, N-(4-((3-chloro-2-fluorophenyl)amino)-7-((3-methyloxetan-3-yl)ethynyl)quinazolin-6-yl)acrylamide]
– | ≤ 50 | > 500 | > 500 | C=CC(=O)Nc1cc2c(Nc3cccc(Cl)c3F)ncnc2cc1C#CC1(C)CN(C)CCO1 (stereo not shown) [Compound 32, N-(4-((3-chloro-2-fluorophenyl)amino)-7-((2,4-dimethylmorpholin-2-yl)ethynyl)quinazolin-6-yl)acrylamide]
– | ≤ 50 | ≤ 50 | ≤ 50 | C=CC(=O)Nc1cc2c(Nc3ccc(Cl)c(Cl)c3F)ncnc2cc1C#C[C@]12C[C@H]1CN(C)C2 [Compound 33, N-(4-((3,4-dichloro-2-fluorophenyl)amino)-7-(((1S,5R)-3-methyl-3-azabicyclo[3.1.0]hexan-1-yl)ethynyl)quinazolin-6-yl)acrylamide]
– | ≤ 50 | ≤ 50 | ≤ 50 | C=CC(=O)Nc1cc2c(Nc3ccc(Cl)c(Cl)c3F)ncnc2cc1C#C[C@@]12C[C@@H]1CN(C)C2 [Compound 34]
– | ≤ 50 | ≤ 50 | ≤ 50 | C=CC(=O)Nc1cc2c(Nc3cccc(Cl)c3F)ncnc2cc1C#C[C@@]1(OC)CCN(C)C1 [Compound 35, (S)—N-(4-((3-chloro-2-fluorophenyl)amino)-7-((3-methoxy-1-methylpyrrolidin-3-yl)ethynyl)quinazolin-6-yl)acrylamide]
– | ≤ 50 | ≤ 50 | ≤ 50 | C=CC(=O)Nc1cc2c(Nc3cccc(Cl)c3F)ncnc2cc1C#C[C@]1(OC)CCN(C)C1 [Compound 36, (R)—N-(4-((3-chloro-2-fluorophenyl)amino)-7-((3-methoxy-1-methylpyrrolidin-3-yl)ethynyl)quinazolin-6-yl)acrylamide]
– | ≤ 50 | 50 to 100 | 100 to 500 | CC#CC(=O)Nc1cc2c(Nc3cccc(Cl)c3F)ncnc2cc1C#C[C@@]12C[C@@H]1CN(C)C2 [Compound 38, N-(4-((3-chloro-2-fluorophenyl)amino)-7-(((1R,5S)-3-methyl-3-azabicyclo[3.1.0]hexan-1-yl)ethynyl)quinazolin-6-yl)but-2-ynamide]
– | ≤ 50 | 100 to 500 | 100 to 500 | C=CC(=O)Nc1cc2c(Nc3ccc(Oc4ccccc4)cc3)ncnc2cc1C#C[C@@]12C[C@@H]1CN(C)C2 [Compound 40, N-(7-(((1R,5S)-3-methyl-3-azabicyclo[3.1.0]hexan-1-yl)ethynyl)-4-((4-phenoxyphenyl)amino)quinazolin-6-yl)acrylamide]
– | ≤ 50 | ≤ 50 | ≤ 50 | C=CC(=O)Nc1cc2c(Nc3cccc(Cl)c3F)ncnc2cc1C#C[C@]12C[C@H]1CN(C(C)C)C2 [Compound 42, N-(4-((3-chloro-2-fluorophenyl)amino)-7-(((1S,5R)-3-isopropyl-3-azabicyclo[3.1.0]hexan-1-yl)ethynyl)quinazolin-6-yl)acrylamide]
